Reference: patent US10933049B2, “Mobilizing agents and uses therefor” (The University of Queensland, priority 2015, dated 2021)
“Also recorded” adds a separate entry of the source.

What was measured:
[1] = test system: B16 melanoma cells; test: Cell migration assay (scratch) of B16 cells; format: cell-based, murine; conditions: 10^-6 mol/L, 24 hours
Description: Cells were seeded at confluence (2×10^5 cells/cm^2) into a 24 well plate, adhered overnight and then confluent monolayers scratched with a pipette tip before being treated for 24 hours with C3aR agonist (10^−6 mol/L); control wells were incubated with medium alone or containing 5% FCS. Migration was quantified by measuring cell-free areas at day 0 and 24 hours using Image-J software (NIH, Bethesda, Md., USA).

[2] = test system: B16 melanoma cells; test: B16 tumor cell proliferation; format: cell-based, murine
[3] = test system: ERK and AKT signaling pathways; test: Western analysis of ERK and AKT phosphorylation in B16 cells; format: cell-based, murine; conditions: cultured B16 cells, 0-60 min
Description: B16 cells were treated with recombinant human C3a (10 nM) or the selective mouse C3aR agonist WWGKKYRASKLGLAR [SEQ ID NO: 5] (Proctor et al., 2009; Wu et al., 2013) for the times indicated in the experiment. After treatment, crude protein extracts were obtained by disrupting the cells in RIPA lysis buffer. Samples were subjected to SDS-PAGE (Laemmli, 1970), then separated proteins electrotransferred (Towbin et al., 1979) to a PVDF membrane. Membranes were incubated with antibodies to anti-phospho-AKT, anti-total AKT (Cell Signaling, Danvers, Mass.), mouse anti-diphosphorylated ERK1/2 and rabbit anti-total ERK1/2 (Sigma-Aldrich) followed by fluorescently-labelled secondary antibodies (IR Dye 800CW-goat anti-mouse Ig and IR Dye 680LT anti-rabbit Ig; Li-Cor Biosciences). Immunoreactive bands were visualized by scanning on an Odyssey Imaging System (Li-Cor Biosciences) and the percentage phosphorylated protein relative to total protein determined using Odyssey V3.0 image analysis software.

[4] = target: T1, C3aR (Mus musculus, UniProt O09047); test: Calcium mobilization in B16 cells; format: cell-based, murine; conditions: cultured B16 cells
T1 construct: endogenous in cells; host or cells: B16-F0 murine melanoma cells (ATCC CRL6322)
T1 sequence (O09047 1-477): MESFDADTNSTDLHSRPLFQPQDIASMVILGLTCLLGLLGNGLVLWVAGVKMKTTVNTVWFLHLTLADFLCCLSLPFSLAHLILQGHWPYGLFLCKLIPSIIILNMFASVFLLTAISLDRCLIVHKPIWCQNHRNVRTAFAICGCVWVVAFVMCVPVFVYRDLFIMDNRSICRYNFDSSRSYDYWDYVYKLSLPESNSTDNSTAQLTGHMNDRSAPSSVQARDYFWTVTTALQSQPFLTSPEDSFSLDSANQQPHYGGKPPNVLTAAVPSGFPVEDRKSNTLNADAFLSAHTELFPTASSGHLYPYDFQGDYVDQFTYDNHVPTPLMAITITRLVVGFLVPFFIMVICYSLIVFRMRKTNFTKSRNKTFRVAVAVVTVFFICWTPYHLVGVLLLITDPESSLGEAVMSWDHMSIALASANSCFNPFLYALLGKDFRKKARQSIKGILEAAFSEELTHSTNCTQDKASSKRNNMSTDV

[5] = test system: leukocyte populations; test: Flow cytometric analysis of leukocyte populations in B16 tumor-bearing mice; format: in vivo; conditions: vs vehicle
Description: (§1) WT or C3aR^−/− mice were injected subcutaneously (s.c.) with B16-F0 melanoma (2.5×10^5 cells/mouse) or MC38 colon carcinoma (1×10^6 cells/mouse); female BALB/c mice were injected into the mammary fat pad with 4T1 mammary carcinoma (5×10^5 cells/mouse). Tumor growth was monitored daily from day 5 after tumor cell injection. For some experiments, C57BL/63 mice received daily injections of either C3aR antagonist (SB290157; VDM Biochemicals, Bedford Heights, Ohio; diluted in saline, 1 mg/kg/day i.p.,), C5aR antagonist (PMX53; produced in-house; 1 mg/kg/day) or vehicle only (0.9% saline or 5% glucose solution) control, commencing once tumors became palpable (approx. day 7 after tumor cell injection). For most experiments, mice were euthanized at day 14 (or once the largest tumor reached an area of approx. 200 mm^2), blood was collected by cardiac puncture, tumors, spleen, draining lymph nodes (inguinal, axillary and brachial) and femurs excised for FACS or immunostaining; tumors were weighed. For ‘survival’ studies, the time taken for each tumor to reach a pre-determined size (150 mm^2) was recorded, then mice euthanized.
Single cell suspensions of blood, tumor, spleen and lymph node and bone marrow cell were prepared for surface staining with antibodies to mouse CD45, F4/80, CD11b, Ly6G, Gr-1, CD3, CD4, CD8a (all from Biolegend, San Diego, Calif.). Staining for Tregs was carried out using a FoxP3 Fix/Perm kit (BioLegend), according to manufacturer's instructions. For Th1, Th2, Th17 staining, cells were stimulated with phorbol 12-myristate 13-acetate (PMA; 50 ng/ml; Sigma) and ionomycin (1 μM; Sigma) in the presence of Brefeldin A (5 μg/ml; BioLegend) for 4 h at 37° C. After surface staining, cells were fixed and permeabilized for staining of intracellular cytokines; IL-4, IL-17A or IFN-γ (all from BioLegend). Flow cytometry was performed using an Accuri C6 flow cytometer (BD Biosciences) and data analysis with FlowJo software (Tree Star, Inc., Ashland, Oreg.). Details are provided in Supplemental Experimental Procedures.

[6] = test system: B16 melanoma; test: B16 melanoma growth and survival in mice; format: in vivo; conditions: for survival (time until tumors reach maximal size): C3aRA vs vehicle
Description: as §1

[7] = test system: 4T1 mammary carcinoma; test: 4T1 mammary carcinoma growth in BALB/c mice; format: in vivo; conditions: female BALB/c mice, 1 mg/kg/day i.p. from day 0, vs saline
Description: as §1, with “For some experiments, C57BL/63 mice received daily injections of either C3aR antagonist (SB290157; VDM Biochemicals, Bedford Heights, Ohio; diluted in saline, 1 mg/kg/day i.p.,), C5aR antagonist (PMX53; produced in-house; 1 mg/kg/day) or vehicle only (0.9% saline or 5% glucose solution) control, commencing once tumors became palpable (approx. day 7 after tumor cell injection).” left out

[8] = test system: CD11b+Ly6G+ neutrophils; test: Neutrophil mobilization by G-CSF in wild-type and C3aR-/- mice; format: in vivo; conditions: 120 μg/kg i.v., 2 hours
Description: Wild-type, or C3aR^−/− mice were injected i.v. with G-CSF (Lenograstim; 120 μg/kg), or vehicle (saline). Blood was collected after 2 hours, and CD11b+Ly6G+ neutrophils analyzed using flow cytometry for CD11b+ and Ly6G+.

[9] = established B16 melanoma, C57BL/6J mice, 1 mg/kg/day i.p. from day 7, vs vehicle

WWGKKYRASKLGLAR (listed as Homo sapiens) [selective C3aR agonist]
cell migration [1]: significantly increased
tumor cell proliferation [2]: no significant effect
ERK and AKT signaling pathways [3]: activated
calcium mobilization response [4]: failed to initiate a calcium mobilization response

recombinant human C3a: recombinant human C3a used to stimulate B16 cells
ERK and AKT signaling pathways [3]: activated
calcium mobilization response [4]: failed to initiate a calcium mobilization response

N=C(N)NCCC[C@H](NC(=O)COCC(c1ccccc1)c1ccccc1)C(=O)O [SB290157, N^2-[(2,2-diphenylethoxy)acetyl]-1-arginine]
Tregs ([5]; blood): reduction
neutrophils ([5]; blood): significant increase
MDSC ([5]; bone marrow): significantly lower
monocytes ([5]; bone marrow): significantly lower
neutrophils ([5]; bone marrow): significantly lower
Th2 cells ([5]; draining lymph nodes): significantly increased
macrophages ([5]; draining lymph nodes): not significantly different
monocytes ([5]; draining lymph nodes): not significantly different
neutrophils ([5]; draining lymph nodes): not significantly different
percentage of CD4+ T lymphocytes ([5]; draining lymph nodes): significantly increased
percentage of CD8+ T lymphocytes ([5]; draining lymph nodes): significantly increased
CD4+ lymphocytes ([5]; spleen): significantly higher
MDSC ([5]; spleen): significantly lower
Th2 cells ([5]; spleen): significant increases
Treg cells ([5]; spleen): significant increases
proportion of macrophages ([5]; spleen): not significantly altered
proportion of monocytes ([5]; spleen): not significantly altered
proportion of neutrophils ([5]; spleen): not significantly altered
total lymphocytes ([5]; spleen): significantly higher
percentage of CD4+ T lymphocytes ([5]; tumor tissue, 1 mg/kg/day): higher
percentage of Th1 subset ([5]; tumor tissue, 1 mg/kg/day): significantly increased
percentage of Th2 subset ([5]; tumor tissue, 1 mg/kg/day): significantly increased
percentage of Th17 subset ([5]; tumor tissue, 1 mg/kg/day): significantly increased
percentage of total T lymphocytes ([5]; tumor tissue, 1 mg/kg/day): higher
percentage of tumor-infiltrating neutrophils ([5]; tumor tissue, 1 mg/kg/day): increased
proportion of MDSC ([5]; tumor tissue, 1 mg/kg/day): not significantly altered
tumor-associated macrophages ([5]; tumor tissue, 1 mg/kg/day): reduced
survival (time until tumors reach maximal size) ([6]; B16 melanoma): significantly improved
survival (time until tumors reach maximal size) ([6]; B16 melanoma, listed as C3aRA): increased survival
excised tumor weights ([6]; B16 melanoma, day 14, 1 mg/kg/day i.p. from day 7, vs vehicle): significantly smaller
tumor area [6, 9]: significantly smaller than in the vehicle-treated control group
tumor progression [6, 9]: dramatically retarded
tumor growth [7]: significant inhibition of tumor growth

PMX53
reduction in tumor growth observed in C3aR-/- mice ([6]; C3aR-/- mice, B16 melanoma, 1 mg/kg/day s.c. once tumors palpable): not enhanced
melanoma growth ([6]; WT mice, B16 melanoma, 1 mg/kg/day s.c. once tumors palpable, vs vehicle): inhibited melanoma growth

B1: G-CSF: granulocyte-colony stimulating factor (Lenograstim), stem cell-mobilizing agent (protein, UniProt P09919 31-207, looked up)
Granulocyte …: TPLGPASSLPQSFLLKCLEQVRKIQGDGAALQEKLVSECATYKLCHPEELVLLGHSLGIPWAPLSSCPSQALQLAGCLSQLHSGLFLYQGLLQALEGISPELGPTLDTLQLDVADFATTIWQQMEELGMAPALQPTQGAMPAFASAFQRRAGGVLVASHLQSFLEVSYRVLRHLAQP
blood CD11b+Ly6G+ (anti-tumor) neutrophils in C3aR-/- mice compared with saline [8]: significantly enhanced; also recorded: significant (P=0.0079) increase
mobilization of blood neutrophils, C3aR-/- compared with wild-type mice [8]: significantly (P=0.0056) greater mobilization of neutrophils
